Assay in all cases: NCI anticancer screen, dose series, 48 h
In experiment [1] the test system is HOP-92 NSCLC.
The test system of experiment [2] is OVCAR-3 ovarian.
Experiment [3] has as its system K-562 leukemia.
For experiment [4], the system named is HOP-62 NSCLC.
In experiment [5] the test system is RPMI-8226 leukemia.
The test system of experiment [6] is NCI/ADR-RES ovarian.
Experiment [7] relates to SK-MEL-28 melanoma.
The test system of experiment [8] is A498 renal.
The test system of experiment [9] is TK-10 renal.
In experiment [10] the test system is SW-620 colon.
Experiment [11] has as its system NCI-H522 lung.
For experiment [12], the system named is SN12C renal.
Experiment [13] relates to SK-MEL-5 melanoma.
Experiment [14] concerns NCI-H460 lung.
For experiment [15], the system named is SR leukemia.
The test system of experiment [16] is IGROV1 ovarian.
Experiment [17] relates to MDA-MB-231 breast.
Experiment [18] has as its system OVCAR-4 ovarian.
For experiment [19], the system named is SF-539 CNS.

Results on 18 compounds are retold here after PubChem BioAssay (NCI).

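Results reflect a 48-hour exposure of cells in 96-well plates to compound at five concentrations. TGI denotes the concentration required for complete inhibition of growth.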 A value given as a limit tells only on which side of the number the result lay.

With `NC1=Nc2ccccc2Sc2nncn21`, the TGI in experiment [1], in [2], in experiment [3], in experiment [4], in experiment [5] and in [6] was greater than 100 µM in each case. Besides, the TGI in experiment [7], in experiment [8], in experiment [9], in experiment [10], in experiment [11] and in experiment [12] was greater than 100 µM throughout. Moreover, the TGI in experiment [13], in experiment [14], in experiment [15], in experiment [16], in [17] and in experiment [18] was greater than 100 µM in each case. The compound also registered a TGI in [19] greater than 100 µM.

For the compound `CC(C)(C)c1ccc2c(c1)OP1(Oc3c(Cl)cc(Cl)c4cccnc34)(O2)Oc2ccc(C(C)(C)C)cc2O1`, the TGI was 13.3 µM in experiment [2]; greater than 31.6 µM in experiment [3]; 20 µM in experiment [4]; 19 µM in experiment [5]; 24.6 µM in experiment [6]; 28.4 µM in experiment [7]. In addition, the TGI in [8] was 28.7 µM; in experiment [10], 23.5 µM; in experiment [11], 8.45 µM; in experiment [12], 30.8 µM; in [13] it was 22.1 µM; in experiment [14] it was 16.2 µM. Moreover, the TGI was found to be 25.7 µM in experiment [16], 23.3 µM in [18] and 21.2 µM in experiment [19].

Turning to `COc1ccc(N2C(=O)C3CC(c4ccc(Br)cc4)c4c([nH]c5ccccc45)C3C2=O)cc1` (stereo unspecified), the TGI in [1] was 29.3 µM; in [3] it was 27.8 µM; in [4] it was 11.5 µM; in experiment [5] it was greater than 100 µM; in [7], 28.5 µM; in [8], 22.3 µM. In addition, the TGI amounted to 20 µM in experiment [9]; 18.5 µM in experiment [10]; 15.2 µM in experiment [12]; 35.5 µM in experiment [13]; 17.2 µM in [14]; 26.2 µM in [16]. For the same compound, the TGI in [18] was 9.29 µM; in experiment [19] it was 11.7 µM.

Regarding `O=S1(=O)c2ccccc2N(O)C2=NCCN21`, the TGI in [1], in experiment [2], in experiment [3], in experiment [4], in experiment [5] and in experiment [7] was greater than 100 µM each time. Besides, the TGI in experiment [8], in experiment [9], in experiment [10], in experiment [11], in [12] and in experiment [13] was greater than 100 µM throughout. For the same compound, the TGI in [14], in [15], in [16] and in experiment [19] was greater than 100 µM throughout.

On to `C=C(/C=C/C=C(\C)CCC=C(C)C)[C@@H]1CC[C@]2([C@H](CCCO)/C(=C(/C)C=O)CC[C@]2(C)O)[C@@H]1O`, for which the TGI is 30.9 µM in experiment [3]; 28.4 µM in experiment [7]; 66.2 µM in experiment [9]; 40.7 µM in [10]; 33 µM in experiment [11]; 31.4 µM in experiment [12]. Also, the TGI is 53.1 µM in experiment [13]; 26.5 µM in experiment [14]; 40.9 µM in experiment [15]; 81.1 µM in experiment [16]; 25.1 µM in experiment [19].

In the case of `CC(C)(C)OC(=O)NCC(CNC(=O)OC(C)(C)C)C(N)=O`, the TGI in experiment [1], in experiment [2], in [3], in experiment [4], in [5] and in experiment [6] was greater than 100 µM throughout. Also, the TGI in experiment [7], in [8], in experiment [9], in experiment [10], in [11] and in experiment [12] was greater than 100 µM throughout. The TGI in experiment [13], in experiment [14], in experiment [15], in experiment [16], in [17] and in experiment [18] was greater than 100 µM in each case. In [19], the TGI is greater than 100 µM.

Regarding `S=P1(Sc2ccccc2)Oc2ccc3ccccc3c2-c2c(ccc3ccccc23)O1`, the TGI in experiment [1], in experiment [2], in experiment [3], in experiment [4], in [5] and in experiment [6] was greater than 100 µM throughout. The TGI in experiment [7], in [8], in [10], in experiment [11], in [12] and in experiment [13] was greater than 100 µM each time. Moreover, the TGI in experiment [14], in experiment [16], in experiment [18] and in experiment [19] was greater than 100 µM throughout.

With `COC(=O)C1=CO[C@@H](C)[C@@H]2Cn3ccc4c5ccccc5nc-4c3C[C@H]12`, the TGI in experiment [1], in [2], in [3], in [4], in experiment [5] and in experiment [7] was greater than 100 µM throughout. Besides, the TGI in experiment [8], in experiment [9], in experiment [10], in experiment [11], in [12] and in [13] was greater than 100 µM each time. Besides, the TGI in [14], in [16], in experiment [18] and in [19] was greater than 100 µM each time.

For `O=C1C(Cl)=C(Cl)C(=O)C(CCNc2nccs2)=C1Cl`, the TGI in experiment [1] was 58.2 µM; in experiment [2], 49.8 µM; in experiment [3], greater than 100 µM; in [4], greater than 100 µM; in experiment [6], 58.7 µM; in [7], greater than 100 µM. For the same compound, the TGI is 63.6 µM in experiment [9]; greater than 100 µM in experiment [10]; 51.3 µM in experiment [11]; 73.2 µM in experiment [12]; 50.1 µM in experiment [13]; greater than 100 µM in experiment [14]. Further, the TGI was greater than 100 µM in experiment [15], 42.2 µM in experiment [16], greater than 100 µM in [18] and greater than 100 µM in experiment [19].

Take `O=C(OC1=CCN(Br)C1=O)C1=C(O)C(=O)N(Br)C1`: the TGI in experiment [2] is 51.6 µM; in [3] it was greater than 100 µM; in experiment [4] it was 51.7 µM; in [5], greater than 100 µM; in [6], greater than 100 µM; in experiment [7], 41.4 µM. The TGI in experiment [8] was greater than 100 µM; in [9], greater than 100 µM; in [10], 65.2 µM; in experiment [11] it was 31.4 µM; in experiment [12], 31 µM; in experiment [13], 33.5 µM. For the same compound, the TGI was greater than 100 µM in experiment [14]; 52.3 µM in experiment [15]; greater than 100 µM in experiment [16]; 86.3 µM in experiment [17]; greater than 100 µM in experiment [18].

Turning to `O=C1CCCCCCC2=C1C(Sc1ccccc1)CC2` (stereo unspecified), the TGI is greater than 100 µM in experiment [3]; greater than 100 µM in experiment [4]; 95.5 µM in experiment [5]; 94.8 µM in experiment [7]; greater than 100 µM in experiment [9]; greater than 100 µM in experiment [10]. Besides, the TGI in experiment [11] was 41.4 µM; in experiment [12], 42.3 µM; in [13] it was greater than 100 µM; in experiment [14], greater than 100 µM; in experiment [15], 79.3 µM; in experiment [18] it was greater than 100 µM.

Take `c1ccc2c3c(ccc2c1)-c1[nH]ncc1CCO3`: the TGI in experiment [1] was 57.7 µM; in [2] it was greater than 82.1 µM; in [3] it was greater than 100 µM; in experiment [4], greater than 91.9 µM; in [6] it was greater than 100 µM; in experiment [7], greater than 100 µM. Also, the TGI in experiment [8] is 99.7 µM; in experiment [10], greater than 100 µM; in experiment [11], greater than 81.5 µM; in experiment [12], greater than 80.4 µM; in [13], greater than 71.3 µM; in experiment [14], greater than 88 µM. The TGI was greater than 86.9 µM in [16], greater than 84.9 µM in experiment [18] and 69.8 µM in experiment [19].

For the compound `OC1NC2Nc3ccccc3NC2NC1O` (stereo unspecified), the TGI in experiment [1], in experiment [2], in experiment [3], in experiment [4], in [6] and in [7] was greater than 100 µM throughout. For the same compound, the TGI in [8], in experiment [9], in [10], in experiment [11], in [12] and in [13] was greater than 100 µM in each case. In addition, the TGI in [14], in experiment [15], in experiment [16], in experiment [17], in experiment [18] and in experiment [19] was greater than 100 µM in each case.

Take `CC(=O)OCc1c(O)c2c([nH]c1=O)CCc1ccccc1-2`: the TGI is 182 µM in experiment [1]; 102 µM in experiment [2]; greater than 350 µM in experiment [3]; greater than 350 µM in [4]; greater than 350 µM in experiment [5]; 130 µM in [7]. Further, the TGI was found to be 186 µM in [9]; 111 µM in experiment [10]; 84.6 µM in experiment [11]; 155 µM in experiment [12]; 177 µM in experiment [13]; 283 µM in experiment [14]. Also, the TGI in experiment [15] was greater than 350 µM; in experiment [16] it was greater than 350 µM; in [19], 177 µM.

Consider `CC(C)(C)C1=CC(=N/N=c2\scc(-c3ccccc3)n2-c2ccccc2)C=C(C(C)(C)C)C1=O`, for which the TGI in experiment [1], in experiment [2], in experiment [3], in experiment [4], in [5] and in [7] was greater than 100 µM in each case. In addition, the TGI in [8], in [9], in [10], in [11], in [12] and in experiment [13] was greater than 100 µM in each case. In addition, the TGI in experiment [14], in experiment [15], in experiment [16], in [18] and in experiment [19] was greater than 100 µM in each case.

As to `CCCCN(CC)C(=O)C(=O)Cc1nc2ccc(C(=O)c3ccccc3)cc2[nH]c1=O`, the TGI was greater than 100 µM in experiment [1]; greater than 100 µM in [2]; greater than 31.6 µM in [3]; greater than 100 µM in [4]; greater than 31.6 µM in experiment [5]; greater than 100 µM in [7]. The TGI in [8] is greater than 100 µM; in [9] it was greater than 100 µM; in [10] it was greater than 100 µM; in [11], 75 µM; in experiment [12], greater than 100 µM; in [13], greater than 100 µM. Also, the TGI in [14] was greater than 100 µM; in [15], greater than 31.6 µM; in [16] it was greater than 100 µM; in [18], greater than 100 µM; in experiment [19] it was greater than 100 µM.

In the case of `CC1CCN(C(C)C)P(=S)(Cc2ccccc2)O1` (stereo unspecified), the TGI in [2] was greater than 100 µM; in experiment [3] it was greater than 100 µM; in experiment [4], greater than 100 µM; in experiment [5] it was greater than 100 µM; in experiment [6] it was greater than 100 µM; in [7] it was 40 µM. For the same compound, the TGI in [9], in experiment [10], in [13], in experiment [14], in [15] and in [16] was greater than 100 µM in each case. Also, the TGI in [17], in experiment [18] and in experiment [19] was greater than 100 µM throughout.

Consider `CCCn1cc2c(=O)[nH]c(SC)nc2n1`, for which the TGI in experiment [1], in [5], in experiment [7], in [8], in experiment [9] and in [10] was greater than 100 µM each time. Also, the TGI in experiment [12], in experiment [13], in [14], in [15], in [16] and in [18] was greater than 100 µM each time. The compound further displayed a TGI in [19] greater than 100 µM.
